Reference: publication PMC9475553, “SHF Acts as a Novel Tumor Suppressor in Glioblastoma Multiforme by Disrupting STAT3 Dimerization” (Advanced Science, 2022)

What was measured:
[1] = system: GST-STAT3; assay: Pull-down assay, GST-STAT3 with peptide; type: binding; conditions: GST-STAT3 incubated with C16 or SC for 2 h; Anti-His magnetic beads
Protocol: (§1) Figure 7 Peptide derived from the STAT3‐binding sites of SHF is an effective GBM suppressive strategy. A) Binding model between SHF and STAT3 using ZDOCK server. […] B) IF staining determined the cell penetrability and nuclear‐localization of C16. U251 cells were incubated with C16 or SC for 2 h and performed IF staining using the indicated antibodies. Bars, 10 µm. C) The statical analysis of adsorption equilibrium assay detecting the binding of C16 and SC with recombinant STAT3. D) Pull‐down assay indicating C16 binds STAT3. GST‐STAT3 was incubated with C16 or SC for 2 h, and the pull‐down assay was performed using Anti‐His magnetic beads. E) IP assay showing the effect of C16 on STAT3 dimerization. 293T cells transfected with indicated vectors were incubated with C16 for 2 h. The relative quantification of STAT3 dimerization was listed. F) IP assay detecting the effect of C16 on the interaction of STAT3 and DNMT1. […] The relative quantification of STAT3/DNMT1 interaction was listed. […] The relative quantification of STAT3/DNMT1 interaction was listed. […] Positive cells were quantified 20 randomly selected fields per mouse (n = 6, Student's t‐test, **p < 0.01). […]
(§2) Immunoprecipitation (IP) experiments were performed to analyze the protein interactions. […] Precipitated products were analyzed by Western blot using the specified antibodies. […]

[2] = system: GBM cells; assay: Colony formation assay; type: cell-based, human; conditions: C16 vs SC; 25 uM stated adequate for subsequent experiments; n=6, P < 0.01
Protocol: (§3) Cell growth was quantified using the Cell Counting Kit‐8 Assay Kit (Bimake, Houston, TX). Each experiment was repeated at least six times. For the colony formation assay, 800 cells were seeded into each well of a six‐well plate with soft agar (Agarose; Sigma, St. Louis, MO) and maintained in a medium containing 10% FBS for 14 days. The colonies were fixed with methanol and stained with 0.1% crystal violet; the clones containing at least 50 cells were counted using an inverted microscope.
(§4) Supplementary Fig. 9 C16 inhibits tumor growth and promotes chemosensitivity in vitro.
(§5) B. Colony formation of cells treated with SC or C16 (left) and the accompanying statistical
(§6) analysis (right; n=6, Student’s t-test, **P < 0.01).
(§7) C. Annexin V staining flow cytometry assay of cells simultaneously treated with Dox with SC or
(§8) C16 for 48 h (n=3, Student’s t-test, *P < 0.05, **P < 0.01).
(§9) (1 picture or pasted object on this page, not shown here)

[3] = system: U118 cells; assay: Cell growth assay (CCK-8), U118; type: cell-based, human; conditions: n=6
Protocol: as §3, §4, §5, §6, §7, §8, §9

[4] = system: STAT3 dimerization; assay: IP assay: STAT3 dimerization in 293T cells; type: cell-based, human; conditions: transfected 293T cells incubated with C16 for 2 h
Protocol: as §1, §2

C16: peptide spanning SHF amino acids 388–421, palmitic acid at the N-terminus, amidated C-terminus, 3× His tags added to the C-terminal (PFSSVPEIVHHYASRKLPIKGAEHMSLLYPVAIR; palmitic acid at the N-terminus; amidated C-terminus; left off: 3× His tags, C-terminal, kept)
STAT3 binding in pull-down / in vitro IP [1]: contains the STAT3 binding capacity
colony growth [2]: effectively impaired colony growth
cell growth inhibition [3]: inhibited cell growth with concentration dependence
inhibition of STAT3 dimerization (IP) [4]: effectively inhibits STAT3 dimerization
